Source: US11591355B2 (Peloton Therapeutics, Inc., priority 2017, dated 2023)
Where two headings read alike, the source gives them in different places.

Target: T1, Human CD73 (Homo sapiens, UniProt P21589)
T1 construct: purchased R&D Systems; host or cells: CHO cells
T1 sequence (P21589 27-549): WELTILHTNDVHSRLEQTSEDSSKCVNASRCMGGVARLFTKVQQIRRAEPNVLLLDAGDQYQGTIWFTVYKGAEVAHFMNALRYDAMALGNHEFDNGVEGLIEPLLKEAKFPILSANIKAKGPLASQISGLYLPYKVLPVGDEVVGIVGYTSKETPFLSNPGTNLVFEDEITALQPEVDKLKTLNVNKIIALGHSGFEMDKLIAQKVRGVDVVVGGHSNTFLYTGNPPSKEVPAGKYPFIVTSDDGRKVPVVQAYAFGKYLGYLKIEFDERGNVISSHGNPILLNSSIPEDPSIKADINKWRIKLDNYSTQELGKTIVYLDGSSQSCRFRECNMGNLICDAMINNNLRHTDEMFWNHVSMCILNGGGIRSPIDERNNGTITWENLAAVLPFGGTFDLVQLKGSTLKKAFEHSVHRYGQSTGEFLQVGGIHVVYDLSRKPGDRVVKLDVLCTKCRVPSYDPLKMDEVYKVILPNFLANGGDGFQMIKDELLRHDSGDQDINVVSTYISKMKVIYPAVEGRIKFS
Assay: CD73 Enzyme Assay
Type: biochemical

[1] = 0.25 nM hCD73, 25 μM AMP, kinetic read at 360 nm, read-out: CD73 Enzyme Assay IC50

Row | Structure (SMILES) | IC50 [1] [nM] | IC50 [nM]
1 | CNc1nc(NCc2ccccc2)c2ncn([C@@H]3O[C@H](COCP(=O)(O)O)[C@@H](O)[C@H]3O)c2n1 [Compound 5, [(2R,3S,4R,5R)-5-[6-(benzylamino)-2-(methylamino)purin-9-yl]-3,4-dihydroxy-tetrahydrofuran-2-yl]methoxymethyl-phosphonic acid] | > 1000 | 
2 | O=C(O)c1nc(NCc2ccccc2)c2ncn([C@@H]3O[C@H](COCP(=O)(O)O)[C@@H](O)[C@H]3O)c2n1 [Compound 6, 6-(benzylamino)-9-[(2R,3R,4S,5R)-3,4-dihydroxy-5-(phos-phonomethoxy-methyl)tetrahydro-furan-2-yl]purine-2-carboxylic acid] | > 1000 | 
3 | CCOP(=O)(O)COC[C@H]1O[C@@H](n2cnc3c(NCc4ccccc4)ncnc32)[C@H](O)[C@@H]1O [Compound 7, [(2R,3S,4R,5R)-5-[6-(benzylamino)purin-9-yl]-3,4-dihydroxy-tetrahydrofuran-2-yl]-methoxymethyl-ethoxy-phosphinic acid] |  | > 1000
4 | O=P(O)(O)COC[C@H]1O[C@@H](n2cnc3c(NCc4ccccc4)nc(-c4ccccc4)nc32)[C@H](O)[C@@H]1O [Compound 8, [(2R,3S,4R,5R)-5-[6-(benzylamino)-2-phenyl-purin-9-yl]-3,4-dihydroxy-tetrahydrofuran-2-yl]methoxymethylphosphonic acid] | 100 to 1000 | 
5 | O=P(O)(O)COC[C@H]1O[C@@H](n2cnc3c(NCc4ccccc4)nc(-c4cn[nH]c4)nc32)[C@H](O)[C@@H]1O [Compound 10, [(2R,3S,4R,5R)-5-[6-(benzylamino)-2-(1H-pyrazol-4-yl)purin-9-yl]-3,4-dihydroxy-tetrahydrofuran-2-yl]-methoxymethylphos-phonic acid] | 100 to 1000 | 
6 | CC(C)Nc1nc(Cl)nc2c1ncn2[C@@H]1O[C@H](COCP(=O)(O)O)[C@H]2OC(C)(C)O[C@H]21 [Compound 14, [(3aR,4R,6R,6aR)-4-[2-chloro-6-(isopropyl-amino)purin-9-yl]-2,2-dimethyl-3a,4,6,6a-tetrahydrofuro[3,4-d] [1,3]dioxol-6-yl]-methoxymethylphos-phonic acid] | > 1000 | 
7 | O=P(O)(O)COC[C@H]1O[C@@H](n2cnc3c(NCc4ccccn4)ncnc32)[C@H](O)[C@@H]1O [Compound 19, [(2R,3S,4R,5R)-3,4-dihydroxy-5-[6-(2-pyridylmethylamino)-purin-9-yl]tetrahydro-furan-2-yl]methoxy-methylphosphonic acid] | > 1000 | 
8 | O=P(O)(O)COC[C@H]1O[C@@H](n2cnc3c(NCc4ccccc4)nc(Cc4ccccc4)nc32)[C@H](O)[C@@H]1O [Compound 22, [(2R,3S,4R,5R)-5-[2-benzyl-6-(benzyl-amino)purin-9-yl]-3,4-dihydroxy-tetrahydro-furan-2-yl]methoxy-methylphosphonic acid] | 100 to 1000 | 
9 | O=P(O)(O)COC[C@H]1O[C@@H](n2cnc3c(NC4(c5ccccc5)CC4)ncnc32)[C@H](O)[C@@H]1O [Compound 23] | > 1000 | 
10 | O=P(O)(O)COC[C@H]1O[C@@H](n2cnc3c(NCc4cccnc4)ncnc32)[C@H](O)[C@@H]1O [Compound 27, [(2R,3S,4R,5R)-3,4-dihydroxy-5-[6-(3-pyridylmethylamino)-purin-9-yl]tetrahydro-furan-2-yl]methoxy-methylphosphonic acid] | > 1000 | 
11 | O=P(O)(O)COC[C@H]1O[C@@H](n2cnc3c(NCc4ccncc4)ncnc32)[C@H](O)[C@@H]1O [Compound 28, [(2R,3S,4R,5R)-3,4-dihydroxy-5-[6-(4-pyridylmethylamino)-purin-9-yl]tetrahydro-furan-2-yl]methoxy-methylphosphonic acid] | > 1000 | 
12 | O=P(O)(O)COC[C@H]1O[C@@H](n2cnc3c(NCCc4ccccc4)ncnc32)[C@H](O)[C@@H]1O [Compound 29, [(2R,3S,4R,5R)-3,4-dihydroxy-5-[6-(2-phenylethylamino)-purin-9-yl]tetrahydro-furan-2-yl]methoxy-methylphosphonic acid] | 100 to 1000 | 
13 | O=P(O)(O)COC[C@H]1O[C@@H](n2cnc3c(NCc4ccccc4)nc(C4CC4)nc32)[C@H](O)[C@@H]1O [Compound 39, [(2R,3S,4R,5R)-5-[6-(benzylamino)-2-cyclopropyl-purin-9-yl]-3,4-dihydroxy-tetrahydrofuran-2-yl]-methoxymethyl phos-phonic acid] | > 1000 | 
14 | O=c1c2ncn([C@@H]3O[C@H](COCP(=O)(O)O)[C@@H](O)[C@H]3O)c2ncn1Cc1ccccc1 [Compound 42, [(2R,3S,4R,5R)-5-(1-benzyl-6-oxo-purin-9-yl)-3,4-dihydroxy-tetrahydrofuran-2-yl]-methoxymethylphos-phonic acid] | > 1000 | 

The next lines start with results.

Row | IC50 [1] [nM] | Structure (SMILES) | IC50 [nM]
15 | > 1000 | Nc1ncnc2c1ncn2[C@@H]1O[C@H](COCP(=O)(O)O)[C@@H](O)[C@H]1O [Compound 2, [(2R,3S,4R,5R)-5-(6-aminopurin-9-yl)-3,4-dihydroxy-tetrahydrofuran-2-yl]methoxymethyl-phosphonic acid] | 
16 | > 1000 | CNc1ncnc2c1ncn2[C@@H]1O[C@H](COCP(=O)(O)O)[C@@H](O)[C@H]1O [Compound 11, [(2R,3S,4R,5R)-3,4-dihydroxy-5-[6-(methylamino)purin-9-yl]tetrahydrofuran-2-yl]methoxymethyl-phosphonic acid] | 
17 | > 1000 | O=P(O)(O)COC[C@H]1O[C@@H](n2cnc3c(NCCO)ncnc32)[C@H](O)[C@@H]1O [Compound 13, [(2R,3S,4R,5R)-3,4-dihydroxy-5-[6-(2-hydroxyethylamino)-purin-9-yl]tetrahydro-furan-2-yl]methoxy-methylphosphonic acid] | 
18 | > 1000 | CCNc1ncnc2c1ncn2[C@@H]1O[C@H](COCP(=O)(O)O)[C@@H](O)[C@H]1O [Compound 17, [(2R,3S,4R,5R)-5-[6-(ethylamino)purin-9-yl]-3,4-dihydroxy-tetrahydrofuran-2-yl]-methoxymethylphos-phonic acid] | 
19 | > 1000 | O=P(O)(O)COC[C@H]1O[C@@H](n2cnc3c(NC4CC4)ncnc32)[C@H](O)[C@@H]1O [Compound 24, [(2R,3S,4R,5R)-5-[6-(cyclopropylamino)-purin-9-yl]-3,4-dihydroxy-tetrahydro-furan-2-yl]methoxy-methylphosphonic acid] | 
20 | > 1000 | NCCNc1ncnc2c1ncn2[C@@H]1O[C@H](COCP(=O)(O)O)[C@@H](O)[C@H]1O [Compound 25, [(2R,3S,4R,5R)-5-[6-(2-aminoethylamino)-purin-9-yl]-3,4-dihydroxy-tetrahydro-furan-2-yl]methoxy-methylphosphonic acid] | 
21 | > 1000 | O=P(O)(O)COC[C@H]1O[C@@H](n2cnc3c(NCCCO)ncnc32)[C@H](O)[C@@H]1O [Compound 26, [(2R,3S,4R,5R)-3,4-dihydroxy-5-[6-(3-hydroxypropylamino)-purin-9-yl]tetrahydro-furan-2-yl]methoxy-methylphosphonic acid] | 
22 | > 1000 | O=P(O)(O)COC[C@H]1O[C@@H](n2cnc3c(Nc4ccccc4)ncnc32)[C@H](O)[C@@H]1O [Compound 30, [(2R,3S,4R,5R)-5-(6-anilinopurin-9-yl)-3,4-dihydroxy-tetrahydro-furan-2-yl]methoxy-methylphosphonic acid] | 
23 | > 1000 | CC(C)N(C)c1ncnc2c1ncn2[C@@H]1O[C@H](COCP(=O)(O)O)[C@@H](O)[C@H]1O [Compound 31] | 
24 | > 1000 | CC(C)(C)Nc1ncnc2c1ncn2[C@@H]1O[C@H](COCP(=O)(O)O)[C@@H](O)[C@H]1O [Compound 33, [(2R,3S,4R,5R)-5-[6-(tert-butylamino)purin-9-yl]-3,4-dihydroxy-tetrahydrofuran-2-yl]-methoxymethylphos-phonic acid] | 
25 | 100 to 1000 | O=P(O)(O)COC[C@H]1O[C@@H](n2cnc3c(NC4CCC4)ncnc32)[C@H](O)[C@@H]1O [Compound 34, [(2R,3S,4R,5R)-5-[6-(cyclobutylamino)-purin-9-yl]-3,4-dihydroxy-tetrahydro-furan-2-yl]methoxy-methylphosphonic acid] | 
26 | 100 to 1000 | O=P(O)(O)COC[C@H]1O[C@@H](n2cnc3c(NC4CCCCC4)ncnc32)[C@H](O)[C@@H]1O [Compound 35, [(2R,3S,4R,5R)-5-[6-(cyclohexylamino)-purin-9-yl]-3,4-dihydroxy-tetrahydro-furan-2-yl]methoxy-methylphosphonic acid] | 
27 | > 1000 | O=P(O)(O)COC[C@H]1O[C@@H](n2cnc3c2ncn2cnnc32)[C@H](O)[C@@H]1O [Compound 37] | 
28 | > 1000 | O=P(O)(O)COC[C@H]1O[C@@H](n2cnc3c2ncn2ccnc32)[C@H](O)[C@@H]1O [Compound 38] | 
29 | 100 to 1000 | C=Cc1nc(NC(C)C)c2ncn([C@@H]3O[C@H](COCP(=O)(O)O)[C@@H](O)[C@H]3O)c2n1 [Compound 40, [(2R,3S,4R,5R)-3,4-dihydroxy-5-[6-(iso-propylamino)-2-vinyl-purin-9-yl]tetrahydro-furan-2-yl]methoxy-methylphosphonic acid] | 
30 | > 1000 | CCc1nc(NC(C)C)c2ncn([C@@H]3O[C@H](COCP(=O)(O)O)[C@@H](O)[C@H]3O)c2n1 [Compound 41, [(2R,3S,4R,5R)-5-[2-ethyl-6-(isopropyl-amino)purin-9-yl]-3,4-dihydroxy-tetrahydro-furan-2-yl]methoxy-methylphosphonic acid] | 
31 | > 1000 | CC(C)Oc1ncnc2c1ncn2[C@@H]1O[C@H](COCP(=O)(O)O)[C@@H](O)[C@H]1O [Compound 44, [(2R,3S,4R,5R)-3,4-dihydroxy-5-(6-isopropoxypurin-9-yl)tetrahydrofuran-2-yl]methoxymethylphosphonic acid] | 
